The test system of one experiment is L. monocytogenes 149. The experiment can be described thus: MIC for reduction of preformed biofilm (crystal violet staining). Type of experiment: cell-based, Listeria monocytogenes. The conditions noted are these: for MICBR80: ≥80% reduction of preformed biofilm (18 h), 20 h with substance. On the procedure: (§1) Ten concentrations of NAC, RLs, and UA were tested to determine the minimum inhibitory concentration for planktonic growth, and subsequently, the six highest concentrations were applied on preformed biofilms to evaluate the biofilm eradication ability of the compounds. MIC was defined as the lowest substance concentration able to inhibit at least 80% of microbial growth (MICPC80 for planktonic cells, MICBC80 for further growth of biofilm cells), inhibit 80% of metabolic activity (MICBM80 for biofilm metabolic activity, MICMPB80 for metabolic activity of preformed biofilm), prevent biofilm formation by at least 80% (MICBF80 for biofilm formation), or reduce a preformed biofilm by at least 80% (MICBR80 for biofilm reduction). The results of MICs are summarized in Table 1 (planktonic cells) and Table 2 (biofilm-associated cells).
(§2) The determination of MICs was performed according to Chlumsky et al.. Briefly, 96-well flat-bottomed microtiter plates were inoculated with 75 µL (for biofilm formation) or 100 µL (for preformed biofilm) of bacterial suspension (A625nm 0.08 to 0.1) in technical triplicates and were then carefully mixed with the dilution series of the test substances (24 h cultivation at 25 °C for S. Infantis, 37 °C for other strains) or were directly cultivated to preform biofilms (18 h). For a positive control of bacterial growth, the inoculum was mixed with a pure sterile medium. Furthermore, the sterile medium was included in the plate as a marker of potential microbial contamination. To evaluate planktonic cells growth (MICPC80) and further growth of biofilm cells (MICBC80), the optical density of the content of the microtiter plates was measured spectrophotometrically at 625 nm before and after 24 h (for biofilm formation) of cultivation or before and after additional 20 h incubation with the tested compound (for preformed biofilm). The difference of A625nm was considered as a measure of the ability of cells to grow in the presence of the tested substances. To evaluate the inhibition of biofilm formation (MICBF80) and reduction in preformed biofilms (MICBR80), biomass was quantified using crystal violet staining, and its metabolic activity (MICBM80 and MICMPB80) was estimated by using the MTT (thiazyl tetrazolium bromide, Sigma-Aldrich, USA) reduction assay, both measured spectrophotometrically at 595 nm.
(§3) All inhibitions were calculated using the formula of Chlumsky et al. below (Equation (1)):(1) A625(595)nm inhibition (%)=A625(595)nm (control) – A625(595)nm(natural substance)/A625(595)nm (control)× 100 where A625(595)nm (control) is the absorbance of bacterial suspension/biofilm itself, and A625(595)nm(natural substance) is the absorbance of the bacterial suspension/biofilm with the added natural substance (NAC, RLs, and UA).
(§4) When the minimum inhibitory concentration could not be determined, the MIC was established as >the highest tested concentration for NAC, RLs, and UA.

Another experiment has as its system L. monocytogenes 164. The experiment is described as above. Type of experiment: cell-based, Listeria monocytogenes. The conditions noted are these: for MICBR80: ≥80% reduction of preformed biofilm (18 h), 20 h with substance. On the procedure: as §1, §2, §3, §4
In experiment [1] the test system is S. Enteritidis ATCC 13076. The experiment can be described thus: MIC for planktonic cell growth (A625nm). It is filed as cell-based, Salmonella enterica Enteritidis. The conditions noted are these: for MICPC80: ≥80% inhibition, 24 h. As to the method: as §1
The determination of MICs was performed according to Chlumsky et al.. […] To evaluate planktonic cells growth (MICPC80) and further growth of biofilm cells (MICBC80), the optical density of the content of the microtiter plates was measured spectrophotometrically at 625 nm before and after 24 h (for biofilm formation) of cultivation or before and after additional 20 h incubation with the tested compound (for preformed biofilm). […] To evaluate the inhibition of biofilm formation (MICBF80) and reduction in preformed biofilms (MICBR80), biomass was quantified using crystal violet staining, and its metabolic activity (MICBM80 and MICMPB80) was estimated by using the MTT (thiazyl tetrazolium bromide, Sigma-Aldrich, USA) reduction assay, both measured spectrophotometrically at 595 nm.
All inhibitions were calculated using the formula of Chlumsky et al. below (Equation (1)):(1) A625(595)nm inhibition (%)=A625(595)nm (control) – A625(595)nm(natural substance)/A625(595)nm (control)× 100 where A625(595)nm (control) is the absorbance of bacterial suspension/biofilm itself, and A625(595)nm(natural substance) is the absorbance of the bacterial suspension/biofilm with the added natural substance (NAC, RLs, and UA). […]

In the next experiment the test system is E. coli 683/17. The experiment can be described thus: CLSM analysis, biofilm removal (preformed biofilm). Type of experiment: cell-based, Escherichia coli. The conditions noted are these: for Thickness (µm) subCBM80: substance at subinhibitory concentration. As to the method: (§5) Biofilm prevention and removal analyses were performed using previously determined minimum inhibitory and subinhibitory concentrations for metabolic activity (MICBM80, subCBM80; MICMPB80, subCMPB80) of NAC, RLs, and UA specific for each tested strain. Selected concentrations were used to evaluate the inhibition of biofilm formation (biofilm prevention) and the reduction in previously formed biofilms (biofilm removal) for the same set of microorganisms, with the exception of S. Infantis, which was excluded from the analysis due to its inability to form biofilm in the selected microtiter plate. Biofilm prevention and removal were observed using CLSM with specific staining to distinguish between live and membrane-compromised cells. Images were analyzed to evaluate (i). the total volume of the biomass, (ii). ratios of live and membrane-compromised cells, and (iii). to calculate biofilm volume reduction for individual organisms after the respective treatment types. The total biofilm volume was normalized by the area of the well and expressed as an average biofilm thickness. Complete data are provided in Supplementary Materials (Tables S1–S8).
(§6) At first, bacterial suspensions were cultivated in microtiter plates to produce overnight biofilms (18 h). […] cells were then washed out, and the remaining biofilms were further cultivated for an additional 20 h with selected compounds. Following biofilm cultivation, biomass was observed using CLSM with live/membrane-compromised cell staining. Biomass images from biofilm removal treatments were similar to results from biofilm prevention, where biomass was highly diversified across the bacterial species and strains. Visually, biomass images were fairly consistent within the quadruplicates for each tested organism. Non-treated biofilms of S. aureus contained consistent biomass spread across the well (S. aureus 816) or grown around the edges (S. aureus 1241). […] PI staining identified membrane-compromised cells spread across S. aureus 816 biomass and incorporated in the edge of biomass and/or in the central part of the well (Figure 4B,C). […] Membrane-compromised cells appeared contained around the edges (S. aureus 1241), disturbed across the well (in both strains of L. monocytogenes), or in separated biomass in the central part of the well (in both strains of E. coli when treated with the subinhibitory concentration of RLs) (Figure 4D,E).
(§7) For both inhibition and reduction of biofilms, overnight cultures from BHI were diluted in TSB + 1% Glc to reach an absorbance of 0.08 to 0.1 at 625 nm. The inoculum (150 µL) was transferred into wells of the 96-well flat-bottomed Ibidiμ-Plate (Ibidi, Gräfelfing, Germany) and mixed with 150 µL of each of the three tested substances in technical quadruplicates, followed by incubation at 37 °C for 24 h. Simultaneously, the prepared bacterial suspensions were inoculated to an additional microtiter plate (200 µL) and allowed to form biofilm overnight (18 h at 37 °C). After the incubation, the content of the well was drained off, and 200 µL of each of the three tested substances was added to the plate, which was then incubated for an additional 20 h. The used concentrations of the substances represented the subinhibitory and minimum inhibitory concentrations for metabolic activity (subCBM80, MICBM80; subCMPB80, MICMPB80). Both setups contained a positive control of the bacterial growth (inoculum mixed with sterile TSB + 1% Glc medium) and a control monitoring microbial contamination (sterile medium). Non-treated wells were used as a positive control for comparison between non-treated and treated biofilm mass.
(§8) Prior to the imaging, the wells were stained with the LIVE/DEAD® BacLight™ Bacterial Viability Kit (Thermo Fisher Scientific, MA, USA) following the manufacturer’s guidelines and Drago et al.. […]

For another experiment, the system named is E. coli 693/17. The experiment can be described thus: CLSM analysis, biofilm removal (preformed biofilm). To be noted: for Thickness (µm) subCBM80: substance at subinhibitory concentration. It is filed as cell-based, Escherichia coli. On the procedure:
as §5, §6, §7, §8

In the next experiment the test system is S. aureus 1241. The experiment can be described thus: MIC for biofilm metabolic activity (MTT reduction assay). Type of experiment: cell-based, Staphylococcus aureus. To be noted: ≥80% inhibition, 24 h. On the procedure:
as §1
as §2, with “Furthermore, the sterile medium was included in the plate as a marker of potential microbial contamination.” left out, “The difference of A625nm was considered as a measure of the ability of cells to grow in the presence of the tested substances.” left out
as §3, §4
For orientation: Formazan colour is commonly taken as a measure of viable cells.

A further experiment deals with S. aureus 816. The experiment is described as above. Type of experiment: cell-based, Staphylococcus aureus. To be noted: ≥80% inhibition, 24 h. On the procedure: as §1
as §2, with “Furthermore, the sterile medium was included in the plate as a marker of potential microbial contamination.” left out, “The difference of A625nm was considered as a measure of the ability of cells to grow in the presence of the tested substances.” left out
as §3, §4

Setting [2] is: preformed biofilm, within tested concentrations.
Setting [3] is: 20 h, subinhibitory concentration.
The mark [4] stands for this setting: preformed biofilm, 20 h exposure, mean ± SD.
Setting [5] is: preformed biofilm, 20 h exposure, substance at its MIC, mean ± SD.

The structures appear in SMILES notation.

With `CC(=O)c1c(O)c(C)c(O)c2c1OC1=CC(=O)C(C(C)=O)C(=O)C12C` (single isomer, unassigned; (+)) [UA, (+)-usnic acid], the “maximal achieved inhibition (MICBR80 not reached), biofilm reduction” value in the experiment on L. monocytogenes 149 (setting [2]) was 69%. Moreover, the figures for the MICBR80 against L. monocytogenes 149 and with L. monocytogenes 164 were greater than 31.3 µg/mL and 1.96 µg/mL, respectively. Besides, in experiment [1] (within tested concentrations), the “maximal achieved inhibition (MICPC80 not reached)” value stood at 42%. This compound also had an MICPC80 in experiment [1] greater than 31.3 µg/mL. In addition, the “proportion of membrane-compromised cells” value in the experiment on E. coli 683/17 (setting [3]) and in the experiment with E. coli 693/17 (setting [3]) was “up to 40%” throughout. Moreover, the “Thickness (µm) subCBM80” value came to 285 ± 38.5 µm in the experiment on E. coli 683/17 (setting [4]) and 254 ± 81.8 µm with E. coli 693/17 (setting [4]). Besides, the results for the MICBM80 with S. aureus 1241 and in the experiment with S. aureus 816 were 0.49 µg/mL and 0.24 µg/mL, respectively.

In the case of `CC(=O)N[C@@H](CS)C(=O)O` [NAC, N-Acetyl-L-cysteine], the MICBR80 with L. monocytogenes 149 is reported as 100,000 µg/mL; with L. monocytogenes 164 it was > 100,000 µg/mL. For the same compound, in the experiment on L. monocytogenes 164 (setting [2]), the “maximal achieved inhibition (MICBR80 not reached), biofilm reduction” value was 46%. The MICPC80 in experiment [1] is given as 12,500 µg/mL. Moreover, the “Thickness (µm) MICBM80” value in the experiment on E. coli 683/17 (setting [5]) was determined as 153 ± 33.3 µm; in the experiment on E. coli 693/17 (setting [5]), 222 ± 68.8 µm. Moreover, the “Thickness (µm) subCBM80” value in the experiment on E. coli 683/17 (setting [4]) was found to be 128 ± 31.6 µm; in the experiment on E. coli 693/17 (setting [4]) it was 181 ± 33.7 µm. Besides, the MICBM80 against S. aureus 1241 is 6250 µg/mL; against S. aureus 816, 3130 µg/mL.
